From patent publication US8828696B2, “Use of Penicillin G Procaine as a selective antimicrobial agent in the production of alcohol by fermentation” (Lallemand Specialites, Inc, priority 2008, dated 2014)

Key:
[1] = tested on: Lactobacillus fermentum; assay: Bacterial inhibition test; assay type: cell-based; design: key: successful test corresponding to no growth is represented as (=); barely discernable growth is represented as (±); easily noticeable bacterial growth is represented as (+)
Excerpt: (§1) To directly measure the efficacy of Penicillin G Procaine and Penicillin G Potassium a bacterial inhibition test was designed using industrial isolates and chosen ATCC strains. The inhibition testing was spread over 0.1 ppm to 5.0 ppm for the Lactobacillus fermentum and 1.0 ppm to 5.0 ppm for Lactobacillus brevis species of bacteria due to the lack of response of Lactobacillus brevis at lower concentrations. […] The strains used were two isolates of Lactobacillus fermentum and 2 isolates of Lactobacillus brevis. The Lactobacillus fermentum series contained both an industry derived isolate Ind 1 and an ATCC strain while the Lactobacillus brevis series comprised of two isolates, Ind 1 and Ind 43 derived from the ethanol plants. The inhibition test plates were set in triplicate and read at 12 hour intervals up to 48 hours of test endpoint. The results below represent the mode average of the outcome from the triplicate inhibitory test sets for each trial. Table 11 lists the Lactobacillus fermentum and the Lactobacillus brevis results of the inhibition testing as follows: successful test corresponding to no growth is represented as (=), barely discernable growth is represented as (±) and easily noticeable bacterial growth is represented as (+). The set of control tests depict (=) control as just broth and (+) control as just broth with bacteria but without any antibiotic.
(§2) The trial was set up as follows:
(§3) • 1. Weigh out 0.1 g of each sample to be tested into a 15 ml centrifuge tube. • 2. Dissolve sample into 10 ml sterile water. […] Add antibiotic to clean tube, add 2 ml water. • b. Vortex, if antibiotic goes into solution add water for final volume of 10 ml. • c. […] Vortex until all material is in solution. • 3. Vortex the solutions to make sure that they are well mixed. • 4. Filter the solutions through a 0.2 μm syringe filter into a second labeled sterile centrifuge tube. • 5. Add antibiotic solution to MRS Broth for a final volume of 10 ml at the test concentration for each antibiotic. • 6. Mix organism solutions and add 2 μl to each of 3 wells of a 24 well plate. If tubes are used add the 2 μl to each of three tubes for each antibiotic. • 7. Transfer 1 ml of the antibiotic-broth solution to each well containing bacteria. • 8. Recap remaining antibiotic solution and return the tube to the tube rack. This tube will become the negative control for each dilution created. • 9. Add four μl of each bacterial culture to another set of wells and add […] of broth without antibiotics. These wells will be the positive controls. • 10. Incubate plates and tubes at 33 C for 48 hours, examining all samples at 24 hours for growth. Any turbidity detected should be a result of bacterial growth.

[2] = tested on: Lactobacillus brevis; assay: Bacterial inhibition test; assay type: cell-based; design: key to bacterial growth in inhibition test: successful test corresponding to no growth is represented as (=); barely discernable growth is represented as (±); easily noticeable bacterial growth is represented as (+)
Excerpt: as §1, §2, §3

CC1(C)S[C@@H]2[C@H](NC(=O)Cc3ccccc3)C(=O)N2[C@H]1C(=O)[O-].[K+] [Penicillin G Potassium]
bacterial growth in inhibition test ([1]; ATCC L. fermentum, 0.1 ppm, Inc Time 12): =
bacterial growth in inhibition test ([1]; ATCC L. fermentum, 0.1 ppm, Inc Time 24): =
bacterial growth in inhibition test ([1]; ATCC L. fermentum, 0.1 ppm, Inc Time 36): ±
bacterial growth in inhibition test ([1]; ATCC L. fermentum, 0.1 ppm, Inc Time 48): ±
bacterial growth in inhibition test ([1]; ATCC L. fermentum, 0.3 ppm, Inc Time 12): =
bacterial growth in inhibition test ([1]; ATCC L. fermentum, 0.3 ppm, Inc Time 24): =
bacterial growth in inhibition test ([1]; ATCC L. fermentum, 0.3 ppm, Inc Time 36): =
bacterial growth in inhibition test ([1]; ATCC L. fermentum, 0.3 ppm, Inc Time 48): =
bacterial growth in inhibition test ([1]; ATCC L. fermentum, 0.5 ppm, Inc Time 12): =
bacterial growth in inhibition test ([1]; ATCC L. fermentum, 0.5 ppm, Inc Time 24): =
bacterial growth in inhibition test ([1]; ATCC L. fermentum, 0.5 ppm, Inc Time 36): =
bacterial growth in inhibition test ([1]; ATCC L. fermentum, 0.5 ppm, Inc Time 48): =
bacterial growth in inhibition test ([1]; ATCC L. fermentum, 1 ppm, Inc Time 12): =
bacterial growth in inhibition test ([1]; ATCC L. fermentum, 1 ppm, Inc Time 24): =
bacterial growth in inhibition test ([1]; ATCC L. fermentum, 1 ppm, Inc Time 36): =
bacterial growth in inhibition test ([1]; ATCC L. fermentum, 1 ppm, Inc Time 48): =
bacterial growth in inhibition test ([1]; ATCC L. fermentum, 5 ppm, Inc Time 12): =
bacterial growth in inhibition test ([1]; ATCC L. fermentum, 5 ppm, Inc Time 24): =
bacterial growth in inhibition test ([1]; ATCC L. fermentum, 5 ppm, Inc Time 36): =
bacterial growth in inhibition test ([1]; ATCC L. fermentum, 5 ppm, Inc Time 48): =
bacterial growth in inhibition test ([1]; Ind 1 L. fermentum, 0.1 ppm, Inc Time 12): =
bacterial growth in inhibition test ([1]; Ind 1 L. fermentum, 0.1 ppm, Inc Time 24): ±
bacterial growth in inhibition test ([1]; Ind 1 L. fermentum, 0.1 ppm, Inc Time 36): ±
bacterial growth in inhibition test ([1]; Ind 1 L. fermentum, 0.1 ppm, Inc Time 48): ±
bacterial growth in inhibition test ([1]; Ind 1 L. fermentum, 0.3 ppm, Inc Time 12): =
bacterial growth in inhibition test ([1]; Ind 1 L. fermentum, 0.3 ppm, Inc Time 24): =
bacterial growth in inhibition test ([1]; Ind 1 L. fermentum, 0.3 ppm, Inc Time 36): ±
bacterial growth in inhibition test ([1]; Ind 1 L. fermentum, 0.3 ppm, Inc Time 48): ±
bacterial growth in inhibition test ([1]; Ind 1 L. fermentum, 0.5 ppm, Inc Time 12): =
bacterial growth in inhibition test ([1]; Ind 1 L. fermentum, 0.5 ppm, Inc Time 24): =
bacterial growth in inhibition test ([1]; Ind 1 L. fermentum, 0.5 ppm, Inc Time 36): =
bacterial growth in inhibition test ([1]; Ind 1 L. fermentum, 0.5 ppm, Inc Time 48): =
bacterial growth in inhibition test ([1]; Ind 1 L. fermentum, 1.0 ppm, Inc Time 12): =
bacterial growth in inhibition test ([1]; Ind 1 L. fermentum, 1.0 ppm, Inc Time 24): =
bacterial growth in inhibition test ([1]; Ind 1 L. fermentum, 1.0 ppm, Inc Time 36): =
bacterial growth in inhibition test ([1]; Ind 1 L. fermentum, 1.0 ppm, Inc Time 48): =
bacterial growth in inhibition test ([1]; Ind 1 L. fermentum, 5.0 ppm, Inc Time 12): =
bacterial growth in inhibition test ([1]; Ind 1 L. fermentum, 5.0 ppm, Inc Time 24): =
bacterial growth in inhibition test ([1]; Ind 1 L. fermentum, 5.0 ppm, Inc Time 36): =
bacterial growth in inhibition test ([1]; Ind 1 L. fermentum, 5.0 ppm, Inc Time 48): =
bacterial growth in inhibition test ([2]; Ind 1 L. brevis, 1 ppm, Inc Time 12): ±
bacterial growth in inhibition test ([2]; Ind 1 L. brevis, 1 ppm, Inc Time 24): +
bacterial growth in inhibition test ([2]; Ind 1 L. brevis, 1 ppm, Inc Time 36): +
bacterial growth in inhibition test ([2]; Ind 1 L. brevis, 1 ppm, Inc Time 48): +
bacterial growth in inhibition test ([2]; Ind 1 L. brevis, 2 ppm, Inc Time 12): ±
bacterial growth in inhibition test ([2]; Ind 1 L. brevis, 2 ppm, Inc Time 24): +
bacterial growth in inhibition test ([2]; Ind 1 L. brevis, 2 ppm, Inc Time 36): +
bacterial growth in inhibition test ([2]; Ind 1 L. brevis, 2 ppm, Inc Time 48): +
bacterial growth in inhibition test ([2]; Ind 1 L. brevis, 3 ppm, Inc Time 12): ±
bacterial growth in inhibition test ([2]; Ind 1 L. brevis, 3 ppm, Inc Time 24): +
bacterial growth in inhibition test ([2]; Ind 1 L. brevis, 3 ppm, Inc Time 36): +
bacterial growth in inhibition test ([2]; Ind 1 L. brevis, 3 ppm, Inc Time 48): +
bacterial growth in inhibition test ([2]; Ind 1 L. brevis, 4 ppm, Inc Time 12): ±
bacterial growth in inhibition test ([2]; Ind 1 L. brevis, 4 ppm, Inc Time 24): +
bacterial growth in inhibition test ([2]; Ind 1 L. brevis, 4 ppm, Inc Time 36): +
bacterial growth in inhibition test ([2]; Ind 1 L. brevis, 4 ppm, Inc Time 48): +
bacterial growth in inhibition test ([2]; Ind 1 L. brevis, 5 ppm, Inc Time 12): =
bacterial growth in inhibition test ([2]; Ind 1 L. brevis, 5 ppm, Inc Time 24): =
bacterial growth in inhibition test ([2]; Ind 1 L. brevis, 5 ppm, Inc Time 36): ±
bacterial growth in inhibition test ([2]; Ind 1 L. brevis, 5 ppm, Inc Time 48): +
bacterial growth in inhibition test ([2]; Ind 43 L. brevis, 1 ppm, Inc Time 12): =
bacterial growth in inhibition test ([2]; Ind 43 L. brevis, 1 ppm, Inc Time 24): +
bacterial growth in inhibition test ([2]; Ind 43 L. brevis, 1 ppm, Inc Time 36): +
bacterial growth in inhibition test ([2]; Ind 43 L. brevis, 1 ppm, Inc Time 48): +
bacterial growth in inhibition test ([2]; Ind 43 L. brevis, 2 ppm, Inc Time 12): =
bacterial growth in inhibition test ([2]; Ind 43 L. brevis, 2 ppm, Inc Time 24): +
bacterial growth in inhibition test ([2]; Ind 43 L. brevis, 2 ppm, Inc Time 36): +
bacterial growth in inhibition test ([2]; Ind 43 L. brevis, 2 ppm, Inc Time 48): +
bacterial growth in inhibition test ([2]; Ind 43 L. brevis, 3 ppm, Inc Time 12): =
bacterial growth in inhibition test ([2]; Ind 43 L. brevis, 3 ppm, Inc Time 24): +
bacterial growth in inhibition test ([2]; Ind 43 L. brevis, 3 ppm, Inc Time 36): +
bacterial growth in inhibition test ([2]; Ind 43 L. brevis, 3 ppm, Inc Time 48): +
bacterial growth in inhibition test ([2]; Ind 43 L. brevis, 4 ppm, Inc Time 12): =
bacterial growth in inhibition test ([2]; Ind 43 L. brevis, 4 ppm, Inc Time 24): ±
bacterial growth in inhibition test ([2]; Ind 43 L. brevis, 4 ppm, Inc Time 36): ±
bacterial growth in inhibition test ([2]; Ind 43 L. brevis, 4 ppm, Inc Time 48): +
bacterial growth in inhibition test ([2]; Ind 43 L. brevis, 5 ppm, Inc Time 12): =
bacterial growth in inhibition test ([2]; Ind 43 L. brevis, 5 ppm, Inc Time 24): ±
bacterial growth in inhibition test ([2]; Ind 43 L. brevis, 5 ppm, Inc Time 36): ±
bacterial growth in inhibition test ([2]; Ind 43 L. brevis, 5 ppm, Inc Time 48): +
